Assay results published in patent publication US20170119020A1, “METHOD OF FEEDING AN ANIMAL” (CARGILL, INCORPORATED, priority 2014, published 2017).

How the values were obtained:
[1] = tested on: Cobb500 fast-feathering male broilers; assay: Grow out of offspring, performance till slaughter age (Example 3); type: in vivo, chicken
Ross 308 embryos = assay: Embryonic mortality, hatchability and chick quality at hatch (Example 5); type: in vivo, chicken; conditions: for Chick length / Chick weight average / Chick weight dissected chicks / Liver weight / Relative asymmetry / YFBM (yolk free body mass) / Yolk weight: at hatch; for Chick length / Chick weight average / Chick weight dissected chicks / Liver weight / Relative asymmetry / YFBM (yolk free body mass) / Yolk weight / Egg weight EQ / Relative liver weight / Relative yolk weight / Relative chick weight: breeder diet; for Relative liver weight / Relative yolk weight: percentage of chick weight; for Relative chick weight: percentage of egg weight at EO; for Early Embryonic Mortality: E0-E7; for Mid Embryonic Mortality: E8-E18; for Late Embryonic Mortality: E19-E21
Experimental: For a period of six days, eggs were collected from the broiler breeder flock of Example 4 above. The eggs were stored based on breeder pen and storage day for an additional three days before the brooding period started. All eggs were incubated until hatch. All eggs were distributed over 24 trays and 6 blocks, with each block representing a storage day.
A total of 2160 eggs derived from the 37-38 week broiler breeders (Ross 308) of Example 4 were collected and stored in the egg storage unit of the broiler breeder facility. At the start of the incubation period, the eggs were weighed and allocated into blocks, each block representing a storage day. Each block consisted of 24 experimental units, with each experimental unit indicating a group of 15 eggs. Only intact eggs were included and eggs that were cracked, dirty or that had deformed shells were excluded from the trial.
The eggs were placed in a Nature Form NMC 2340 Incubator with automatic control of temperature and relative humidity. From E0 till E18 the eggs were placed in setter trolleys, which consist of two shelves with a capacity for 13 trays each. Each tray has three flats of 30 eggs each. During this period, the incubator start temperature was set at 37.5° C. and relative humidity at 54%.
After the setter period (E0-E18), eggs were transferred to baskets in the hatchers based on the blocking and tray structure in the setter. The eggs were placed into subdivisions of a hatching crate (per experimental unit of 15 eggs), and following tray order per block (starting with 1AO ending with 24CI). Each hatcher trolley has twelve baskets with a capacity for 180 eggs each. Eggs of tray 1-12 were placed in incubator machine 1, eggs of tray 13-24 were placed in incubator machine 2. During this period, the incubator temperature was set at 36.7° C. and relative humidity at 70%.
Group egg weights were recorded at E0. At E7 and E18, all eggs were candled and empty eggs or eggs containing dead embryos were removed (early dead E0-E7, mid dead E8-E18). At E18 eggs were transferred to the hatching baskets after candling. At hatch (E21) the number of dead chickens, late dead embryos (E19-E21) and pipped eggs were recorded. The number of hatched chickens was recorded per replicate, as well as average chick weight. […] Sex was determined by feather sexing, female chickens were euthanized by CO2 and disposed according to local regulations. Per experimental unit, five male chickens were selected for the grow-out period and allocated to broiler grower pens. Only chickens with an average body weight, completely dry, showing active movement and with a good navel score were selected. After this selection one male chicken per experimental unit was selected for dissection. Sample chickens were individually weighed and killed by cervical dislocation to measure remaining yolk-sac weights, yolk-free body mass (“YFBM”), liver weight, chick length, and shank length of both shanks. The livers were immediately placed on dry ice and after dissection stored at −20° C. for further analysis (“SOD and GSSG”). Relative asymmetry was calculated according to the following formula:
RA=(|L−R|/[(L+R)/2])×100.

## Cc1c(C)c2c(c(C)c1O)CCC(C)(CCCC(C)CCCC(C)CCCC(C)C)O2 (racemic) [Vitamin E, DL-α-tocopherol]
[1]; after placement in cages, day 0
  start weight of the chickens: 40.9 g
[1]; corrected to 2,181 gram body weight at 35 days of age
  F:G corrected for BW: 1.627
[1]; offspring
  ADFI 0-3 d: 10.1 g
  ADFI 0-14 d: 37.1 g
  ADFI 0-28 d: 82.1 g
  ADFI 0-35 d: 101.7 g
  ADFI 3-14 d: 44.5 g
  ADFI 14-35: 144.8 g
  ADFI 14-28 d: 127.0 g
  ADFI 28-35 d: 180.3 g
  ADG 0-3 d: 9.5 g
  ADG 0-14 d: 29.3 g
  ADG 0-28 d: 54.4 g
  ADG 0-35 d: 62.2 g
  ADG 3-14 d: 34.7 g
  ADG 14-35: 84.2 g
  ADG 14-28 d: 79.6 g
  ADG 28-35 d: 93.6 g
  BW 0 d: 40.9 g
  BW 3 d: 69.4 g
  BW 14 d: 451 g
  BW 35 d: 2219 g
  F:G 0-14 d: 1.268
  F:G 0-28 d: 1.509
  F:G 0-35 d: 1.635
  F:G 3-14 d: 1.283
  F:G 14-28 d: 1.598
  F:G 14-35 d: 1.720
  F:G 28-35 d: 1.929
[1]; offspring, 35 d
  EPI excl: 388
  EPI, excl mortality: 369
[1]; offspring, breeder diet 80 ppm vitamin E or 40 ppm vitamin E+40 ppm PROVIOX 50
  Mortality: 4.6%
[1]; offspring, kg feed intake:kg gain
  F:G 0-3 d: 1.088
Ross 308 embryos; vitamin E equivalence 80 ppm
  Chick length: 18.3 cm
  Chick weight average: 43.8 g
  Chick weight dissected chicks: 42.8 g
  Liver weight: 1.2 g
  Relative asymmetry: 2.4%
  YFBM (yolk free body mass): 39.6 g
  Yolk weight: 4.2 g
  Egg weight EQ: 62.9 g
  Relative liver weight: 2.8%
  Relative yolk weight: 9.7%
  Relative chick weight: 69.7%
  Empty eggs: 1.2%
  Hatchability of fertile: 91.8%
  Hatchability of total: 90.6%
  Total Embryonic Mortality: 7.7%
  Early Embryonic Mortality: 4.0%
  Mid Embryonic Mortality: 1.6%
  Late Embryonic Mortality: 2.7%
Ross 308 embryos; vitamin E equivalence 160 ppm
  Chick length: 18.4 cm
  Chick weight average: 43.7 g
  Chick weight dissected chicks: 43.6 g
  Liver weight: 1.2 g
  Relative asymmetry: 2.3%
  YFBM (yolk free body mass): 40.6 g
  Yolk weight: 4.2 g
  Egg weight EQ: 63.0 g
  Relative liver weight: 2.7%
  Relative yolk weight: 9.4%
  Relative chick weight: 69.4%
  Empty eggs: 0.0%
  Hatchability of fertile: 90.2%
  Hatchability of total: 90.2%
  Total Embryonic Mortality: 8.6%
  Early Embryonic Mortality: 6.6%
  Mid Embryonic Mortality: 0.5%
  Late Embryonic Mortality: 1.8%
